In assay [1] the test system is H9c2 cells. Nature of the assay: LDH leakage of H9c2 cells injured by H2O2. Type of assay: cell-based. The note with it: for LDH Leakage: H2O2 200 μmol/L 2 hours. As to the method:
H9c2 cells were cultured in DMEM with 10% of fetal bovine serum, 37 degree C. and 5% CO2 incubator. The monolayer culture was split at a 1:4 ratio or harvested to perform experiments when confluence was 70-80%. Adjust the density of the cells to […] and inoculate the cells on a 96 well plate.
H2O2 injury (Model) group, no SAC analogues treatment, under H2O2 200 μmol/L for 2 hours.
PAG group, PAG 10^−4/mol/L
SPRC dosage groups: SPRC 1E-7, SPRC 1E-6, SPRC 1E-5, the cell groups were treated with SPRC dosages of 10^−7 mol/L, 10^−6 mol/L, 10^−5 mol/L respectively.
SPRC dosage+PAG groups: the cell group was treated with SPRC dosages of 10^−5 mol/L and PAG 10^−4 mol/L.
The cell samples (10^6 cells/sample) from each group were lysed under sterilized condition, and LDH contents in each samples were tested by pyruvic acid production method.
On the technique in general: LDH in the medium is a marker of cell lysis.

In assay [2] the test system is Bcl-2. Nature of the assay: Western blot of Bcl-2 protein in left ventricle. Type of assay: in vivo, SD rats. The following applies: MI rats, 50 mg/Kg/day, p<0.01. An excerpt:
(§1) Animals were assigned and prepared the same as in Example 7, and dosages of SPRC and SAC were used the same in this example as in Example 7.
In general terms: In western blotting, separated proteins are transferred to a membrane and probed.

The subject of assay [3] is H9c2 cells. Nature of the assay: Endogenous H2S level in H2O2 injured H9c2 cells. Type of assay: cell-based. The following applies: SPRC treatments. The text has this: (§2) Similar experiments are done on cultured H9c2 cardiac muscle cells groups with the same experiment condition and different dosages of SPRC treatments. The results of the experiments confirm that endogenous H2S level in H2O2 injured H9c2 cells is elevated by SPRC treatments. […] It is also observed that the apoptosis of hypoxic myocardial cells is decreased, the survival rate of the in H2O2 injured H9c2 cells is increased and the LDH releasing from the in H2O2 injured H9c2 cells are reduced by three dosages of SPRC treatment.

Assay [4] concerns Bax. Nature of the assay: Western blot of Bax protein in left ventricle. The assay is classed as in vivo, SD rats. The note with it: MI rats, 50 mg/Kg/day, p<0.01.
Description: as §1

In assay [5] the test system is H9c2 cells. Nature of the assay: Catalase activity in H2O2 injured H9c2 cells. The following applies: SPRC treatments. The assay is classed as cell-based.
Description: as §2

The test system of assay [6] is rats following MI injury. Nature of the assay: Serum CK in rats (sham or MI). The assay is classed as in vivo, SD rats. The note with it: Sham rats; 50 mg/Kg/day intraperitoneal. As for the experimental part: as §1
(§3) Serum CK levels were detected with diagnostic kit (NJBI, China) according to the instructions. LDH were determined calorimetrically with a spectrophotometer. Lipid peroxidation was measured in terms of MDA content using the thiobarbituric acid (TBA) assay. […] With regard to lipid peroxidation, the levels of MDA in MI groups increased at 48 h after myocardial infarction. […] (FIG. 14)

The subject of assay [7] is Bcl-2 mRNA. Nature of the assay: RT-PCR of Bcl-2 mRNA in left ventricle. Type of assay: in vivo, SD rats. The note with it: MI rats, 50 mg/Kg/day, p>0.05.
Description: as §1
To further verify the effects of SPRC and SAC, the expressions of Bcl-2, Bax and CSE mRNA were accessed by RT-PCR (FIG. 17). An isoform of the CSE gene was detected (GenBank; access no. AY641456). The relative amounts of CSE mRNA in Left ventricular subjected to MI were increase 3.3-fold and 1.5-fold following SPRC and SAC exposure as compared to the MI group.

For assay [8], the system named is rats following MI injury. Nature of the assay: SOD activity in plasma of rats (sham or MI). Type of assay: in vivo, SD rats. The note with it: 50 mg/Kg/day intraperitoneal. As for the experimental part: as §1, §3
Assay [9] deals with myocardial cells. Nature of the assay: Lipid peroxidation (MDA, TBA) in hypoxia/reoxygenation injured myocardial cells. The assay is classed as cell-based, Sprague-Dawley (SD) rat. The following applies: 10^−5 mol/L. As for the experimental part:
Myocardial cell samples were obtained from the same procedure of Example 1, the experiment groups were divided and hypoxia/reoxygenation experiments were performed on Control group, Vehicle group, SAC and analogue groups, same as the experiments in Example 1 with the same dosages and same conditions. Myocardial cells were obtained from each sample (10^6 myocardial cells/sample) from the Control group, Vehicle group, SAC and analogue groups. The cells were lysed under sterilized condition, and lipid peroxidation experiments on the samples were performed. Since oxygen free radical attacks poly unsaturated fatty acid in biomembrane, inducing lipid peroxidation and producing MDA (malondialdehyde). MDA can react with thiobarbituric acid (TBA), forms red product, which can be detected in spectrophotometer at 532 nm. […] The inhibition effect could be reversed by PAG.

Assay [10] has as its system CSE. Nature of the assay: Western blot of CSE protein in left ventricle. The note with it: MI rats, 50 mg/Kg/day, p<0.01. Type of assay: in vivo, SD rats.
Description: as §1

The test system of assay [11] is rats following MI injury. Nature of the assay: Infarct size after TTC staining in rats following MI injury. The assay is classed as in vivo, SD rats. The note with it: 50 mg/Kg/day intraperitoneal, 7 days before and 2 days after ligation, 48 h after surgery, saline 36.0±1.3%. As for the experimental part: SPRC and SAC were dissolved in saline (vehicle). Male SD rats (weight 200-250 g) were randomly assigned to […] treatment groups: group (1) Sham group: Sham-treated with saline (n=4), (2) Sham+SPRC group: Sham-treated with SPRC (50 mg/Kg/day) (n=4), (3) Sham+SAC group: Sham-treated with SAC (50 mg/Kg/day) (n=4), (4) MI group: MI treated with saline (n=8), (5) MI+SPRC group: MI treated with SPRC (50 mg/Kg/day) (n=8), (6) MI+SAC group: MI treated with SAC (50 mg/Kg/day) (n=8). Rats were pre-treated for seven days with each SAC analogues respectively via an intraperitoneal injection once daily before they were used for MI model studies. […] Briefly, the rats were anesthetized with 7% choral hydrate (60 mg/kg intraperitoneal injection), endotracheally intubated and mechanically ventilated with room air, respiratory rate 100 breaths/min, tidal volume 2.5 ml with a rodent ventilator (DHX-150, China). ECG was recorded in the anaesthetized animal for a period of one minute using the Animal Mflab200 amplifier (Produced in China). A left thoracotomy was performed and the third intercostal space was exposed. […] Then incisions were sutured and the chests were closed. […] Forty eight hours after the surgery, ECG was recorded for each rat in each group. […] To evaluate the effect of SPRC and SAC on MI, infarct size were measured after TTC staining (FIG. 12).

Assay [12] concerns rats following MI injury. Nature of the assay: Serum LDH in rats (sham or MI). The assay is classed as in vivo, SD rats. The following applies: Sham rats; 50 mg/Kg/day intraperitoneal. As to the method: as §1, §3

On to `C#CCSC[C@H](N)C(=O)O` [SPRC, S-propargyl-cysteine], for which the “LDH Leakage” value in assay [1] (SPRC High Dose 10^−5 mol/L) is given as 43.9 ± 3.0 %; in [1] (SPRC Low Dose 10^−7 mol/L) it was 51.4 ± 1.8%; in assay [1] (SPRC middle Dose 10^−6 mol/L), 50.0 ± 2.6 %. The “LDH leakage compared with model group” value in assay [1] (H2O2 injured H9c2, SPRC groups (10^−7 to 10^−5 mol/L)) is on record as “less LDH leakage than that of model group”. Moreover, in assay [2], the Bcl-2 protein expression result is “up-regulated”. Also, in [3], the “endogenous H2S level” value is recorded as “elevated”. Besides, in assay [4], the Bax protein levels result is “down-regulated”. Also, in assay [5], the catalase activity result is recorded as “elevated”. In addition, the CK in [6] came out at 0.251 ± 0.032 U/ml. Moreover, in [7], the Bcl-2 gene expression entry was “no significant differences”. For the same compound, the SOD in [8] (MI rats, 48 h after MI) was found to be 113.8 ± 1.5 U/ml; in [8] (Sham rats), 161.2 ± 3.8 U/ml. In assay [9], the “lipid peroxidation (MDA)” value is “inhibited”. Moreover, the CSE protein expression result in [10] is recorded as “up-regulated”. Moreover, the “infarct size/total area of myocardium” value in assay [11] is reported as 20.8±2.4%. The compound also yielded an LDH in [12] of 2612 ± 189 U/L.
